test system: HBV; assay: Anti-HBV activity in vitro: quantification of extracellular HBV DNA by direct qPCR in HepAD38 cells; assay type: cell-based; conditions: Hepatitis B virus, tetracycline-free medium, 96 hours at 37°C, reported as EC50 threshold value, read-out: HBV inh EC50
Text: HepAD38 cell line (Ladner et al., Antimicrob Agents Chemother, 1997, 41, 1715-20) was used for HBV inhibition assays. HepAD38 is a subclone, derived from Hepatoblastoma cell line HepG2 (ATCC® Number: HB-8065™), that expresses HBV genome under the transcriptional control of a tetracycline-responsive promoter in a TET-OFF system: addition of tetracycline (TET) or doxycycline suppresses HBV replication, while its removal switches on the process allowing HBV viral particles release in the cell supernatant. HepAD38 cell line is maintained in DMEM/F12, supplemented with 10% of fetal bovine serum, 1% of glutamine, 1% of penicillin/streptomycin, 0.4 mg/ml G418 and 0,3 ug/ml tetracycline. For the HBV inhibition assay, doxycycline-free medium is used in order to allow virion production.
HBV inhibition activity in vitro was performed in 96 multiwell plates. During the initial (primary) screening, compounds were first tested in triplicates at concentrations of 0.02 µM, 0.1 µM, 0.5µM and 1µM. For selected compounds, an 8-point dose-response curve was obtained using 1:2 serial dilutions (starting from 0.01µM, 0.1µM, 0.4µM or 5 µM, depending on the degree of inhibition observed during the primary screening). From the dose-response curves, half maximal effective concentration (EC50) could be calculated (see also below).
In more detail, compounds - typically dissolved in DMSO stock solutions - were diluted to 2x the final desired concentration in 100 µl of the above medium (without doxycycline) and plated in three replicates in the 96-well plates.
Simultaneously, HepAD38 cells - extensively pre-washed in tetracycline-free medium in order to induce HBV production - were suspended at 2^∗10^4 cells in 100 µl of tetracycline-free medium and added to each well of the plate, to yield a final assay volume of 200 µl DMSO - used for stock solutions and compounds dilutions - which was always present in the assays at a final concentration of 0.5%.
Plates were then incubated 96 hours at 37°C and then subjected to cell viability assays and extracellular HBV quantification, in order to evaluate both the cytotoxic potential and the antiviral activity of compounds. Cytotoxicity was assessed by a commercial fluorescence assay that measures the metabolic activity of cells, directly related to cell viability (Cell Titer Blue, Promega). Anti-HBV activity was evaluated by quantification of extracellular HBV DNA with direct qPCR. In particular, supernatant was collected and centrifuged for cell debris clarification, viral DNA was extracted from virions by addition of lysis buffer (1 mM 1,4-dithiothreitol, 0.2% sodium dodecyl sulphate) and incubated at 95°C for 10 min. Samples were then diluted 1:40 and real time PCR amplification was performed with SYBR green assay (Power SYBR™ Green PCR Master Mix-Thermo Fisher Scientific) and specific HBV primer (HBV-DF:5'-[…]-3' (SEQ ID No. 1), HBV-DR:5'-[…]-3' (SEQ ID No.2)).
Antiviral activity data for each compound are reported as EC50 threshold value (see Table 1 legend). Excel and Graphpad Prism programs are typically used for data elaboration and EC50 calculation.

SMILES | EC50 [µM]
Cc1cc(NC(=O)c2c3c(cn2C)S(=O)(=O)N[C@H]2CN(C(=O)C(=O)NC4CCC4)C[C@H]2CO3)ccc1F [Example E22, (3aR,10aR)-2-(2-(cyclobutylamino)-2-oxoacetyl)-N-(4-fluoro-3-methylphenyl)-7-methyl-2,3,3a,4,10,10a-hexahydro-1H,7H-dipyrrolo[3,4-b:3',4'-f][1,4,5]oxathiazocine-8-carboxamide 5,5-dioxide] | < 0.5
Cc1cc(NC(=O)c2c3c(cn2C)S(=O)(=O)N[C@H]2CN(C(=O)C(=O)NC4CC4)C[C@H]2CS3)ccc1F [Example E23, (3aR,10aR)-2-(2-(cyclopropylamino)-2-oxoacetyl)-N-(4-fluoro-3-methylphenyl)-7-methyl-2,3,3a,4,10,10a-hexahydro-1H,7H-dipyrrolo[3,4-c:3',4'-g][1,6,2]dithiazocine-8-carboxamide 5,5-dioxide] | < 0.5
Cc1cc(NC(=O)c2c3c(cn2C)S(=O)(=O)N[C@@H]2CN(C(=O)C(=O)N[C@H](C)C(F)(F)F)C[C@H]2CO3)ccc1F (stereo in doubt) [Example E30, trans-N-(4-fluoro-3-methylphenyl)-7-methyl-2-(2-oxo-2-(((R)-1,1,1-trifluoropropan-2-yl)amino)acetyl)-2,3,3a,4,10,10a-hexahydro-1H,7H-dipyrrolo[3,4-b:3',4'-f][1,4,5]oxathiazocine-8-carboxamide 5,5-dioxide] | < 0.5
Cn1cc2c(c1C(=O)Nc1cc(F)c(F)c(F)c1)OC[C@@H]1CN(C(=O)C(=O)NC3(C)COC3)C[C@@H]1NS2(=O)=O [Example E4, (3aR,10aR)-7-methyl-2-(2-((3-methyloxetan-3-yl)amino)-2-oxoacetyl)-N-(3,4,5-trifluorophenyl)-2,3,3a,4,10,10a-hexahydro-1H,7H-dipyrrolo[3,4-b:3',4'-f][1,4,5]oxathiazocine-8-carboxamide 5,5-dioxide] | < 0.5
Cc1cc(NC(=O)c2c3c(cn2C)S(=O)(=O)N[C@@H]2CN(C(=O)C(=O)NC4CC4)C[C@]2(C)CO3)ccc1F (relative stereo) [Example E25, cis-2-(2-(cyclopropylamino)-2-oxoacetyl)-N-(4-fluoro-3-methylphenyl)-7,10a-dimethyl-2,3,3a,4,10,10a-hexahydro-1H,7H-dipyrrolo[3,4-b:3',4'-f][1,4,5]oxathiazocine-8-carboxamide 5,5-dioxide] | < 0.5
Cn1cc2c(c1C(=O)Nc1ccc(F)c(Cl)c1)OC[C@@H]1CN(C(=O)C(=O)NC3(C)COC3)C[C@@H]1NS2(=O)=O [Example E5, (3aR,10aR)-N-(3-chloro-4-fluorophenyl)-7-methyl-2-(2-((3-methyloxetan-3-yl)amino)-2-oxoacetyl)-2,3,3a,4,10,10a-hexahydro-1H,7H-dipyrrolo[3,4-b:3',4'-f][1,4,5] oxathiazocine-8-carboxamide 5,5-dioxide] | < 0.5
Cc1cc(NC(=O)c2c3c(cn2C)S(=O)(=O)N[C@H]2CN(C(=O)C(=O)NCC(F)(F)F)C[C@H]2CO3)ccc1F [Example E17, (3aR,10aR)-N-(4-fluoro-3-methylphenyl)-7-methyl-2-(2-oxo-2-((2,2,2-trifluoroethyl)amino)acetyl)-2,3,3a,4,10,10a-hexahydro-1H,7H-dipyrrolo[3,4-b:3',4'-f][1,4,5]oxathiazocine-8-carboxamide 5,5-dioxide] | < 0.5
CNC(=O)C(=O)N1C[C@H]2CSc3c(cn(C)c3C(=O)Nc3ccc(F)c(C)c3)S(=O)(=O)N[C@H]2C1 [Example E35, (3aR,10aR)-N-(4-fluoro-3-methylphenyl)-7-methyl-2-(2-(methylamino)-2-oxoacetyl)-2,3,3a,4,10,10a-hexahydro-1H,7H-dipyrrolo[3,4-c:3',4'-g][1,6,2]dithiazocine-8-carboxamide 5,5-dioxide] | < 0.5
Cc1cc(NC(=O)c2c3c(cn2C)S(=O)(=O)N[C@H]2CN(C(=O)C(=O)N[C@H](C)C(F)(F)F)C[C@H]2CO3)ccc1F [Example E9, (3aR,10aR)-N-(4-fluoro-3-methylphenyl)-7-methyl-2-(2-oxo-2-(((R)-1,1,1-trifluoropropan-2-yl)amino)acetyl)-2,3,3a,4,10,10a-hexahydro-1H,7H-dipyrrolo[3,4-b:3',4'-f][1,4,5]oxathiazocine-8-carboxamide 5,5-dioxide] | < 0.5
Cc1cc(NC(=O)c2c3c(cn2C)S(=O)(=O)N[C@H]2CN(C(=O)C(=O)NCC4CC4)C[C@H]2CS3)ccc1F [Example E39, (3aR,10aR)-2-(2-((cyclopropylmethyl)amino)-2-oxoacetyl)-N-(4-fluoro-3-methylphenyl)-7-methyl-2,3,3a,4,10,10a-hexahydro-1H,7H-dipyrrolo[3,4-c:3',4'-g][1,6,2]dithiazocine-8-carboxamide 5,5-dioxide] | < 0.5
Cc1cc(NC(=O)c2c3c(cn2C)S(=O)(=O)N[C@H]2CN(C(=O)C(=O)NC(C)C)C[C@H]2CO3)ccc1F [Example E21, (3aR,10aR)-N-(4-fluoro-3-methylphenyl)-2-(2-(isopropylamino)-2-oxoacetyl)-7-methyl-2,3,3a,4,10,10a-hexahydro-1H,7H-dipyrrolo[3,4-b:3',4'-f][1,4,5]oxathiazocine-8-carboxamide 5,5-dioxide] | < 0.5
Cc1cc(NC(=O)c2c3c(cn2C)S(=O)(=O)N[C@]2(C)CN(C(=O)C(=O)N[C@H](C)C(F)(F)F)C[C@@H]2CO3)ccc1F (stereo in doubt) [Example E27, Cis-N-(4-fluoro-3-methylphenyl)-3a,7-dimethyl-2-(2-oxo-2-(((R)-1,1,1-trifluoropropan-2-yl)amino)acetyl)-2,3,3a,4,10,10a-hexahydro-1H,7H-dipyrrolo[3,4-b:3',4'-f][1,4,5] oxathiazocine-8-carboxamide 5,5-dioxide] | < 0.5
Cc1cc(NC(=O)c2c3c(cn2C)S(=O)(=O)N[C@H]2CN(C(=O)C(=O)NC4(C)COC4)C[C@H]2CO3)ccc1F [Example E3, (3aR,10aR)-N-(4-fluoro-3-methylphenyl)-7-methyl-2-(2-((3-methyloxetan-3-yl)amino)-2-oxoacetyl)-2,3,3a,4,10,10a-hexahydro-1H,7H-dipyrrolo[3,4-b:3',4'-f][1,4,5]oxathiazocine-8-carboxamide 5,5-dioxide] | < 0.5
Cc1cc(NC(=O)c2c3c(cn2C)S(=O)(=O)N[C@]2(C)CN(C(=O)C(=O)NC4CC4)C[C@@H]2CO3)ccc1F (relative stereo) [Example E28, cis-2-(2-(cyclopropylamino)-2-oxoacetyl)-N-(4-fluoro-3-methylphenyl)-3a,7-dimethyl-2,3,3a,4,10,10a-hexahydro-1H,7H-dipyrrolo[3,4-b:3',4'-f][1,4,5]oxathiazocine-8-carboxamide 5,5-dioxide] | < 0.5
Cc1cc(NC(=O)c2c3c(cn2C)S(=O)(=O)N[C@H]2CN(C(=O)C(=O)NCC(F)(F)F)C[C@H]2CS3)ccc1F [Example E38, (3aR,10aR)-N-(4-fluoro-3-methylphenyl)-7-methyl-2-(2-oxo-2-((2,2,2-trifluoroethyl)amino)acetyl)-2,3,3a,4,10,10a-hexahydro-1H,7H-dipyrrolo[3,4-c:3',4'-g][1,6,2]dithiazocine-8-carboxamide 5,5-dioxide] | < 0.5
Cc1cc(NC(=O)c2c3c(cn2C)S(=O)(=O)N[C@H]2CN(C(=O)C(=O)N[C@@H](C)C(F)(F)F)C[C@H]2CS3)ccc1F [Example E37, (3aR,10aR)-N-(4-fluoro-3-methylphenyl)-7-methyl-2-(2-oxo-2-(((S)-1,1,1-trifluoropropan-2-yl)amino)acetyl)-2,3,3a,4,10,10a-hexahydro-1H,7H-dipyrrolo[3,4-c:3',4'-g][1,6,2]dithiazocine-8-carboxamide 5,5-dioxide] | < 0.5
CNC(=O)C(=O)N1C[C@@H]2COc3c(cn(C)c3C(=O)Nc3ccc(F)c(C)c3)S(=O)(=O)N[C@@H]2C1 (relative stereo) [Example E10, cis N-(4-fluoro-3-methylphenyl)-7-methyl-2-(2-(methylamino)-2-oxoacetyl)-2,3,3a,4,10,10a-hexahydro-1H,7H-dipyrrolo[3,4-b:3',4'-f][1,4,5]oxathiazocine-8-carboxamide 5,5-dioxide] | < 0.5

From patent EP3741762A1, “OXALAMIDO-SUBSTITUTED TRICYCLIC INHIBITORS OF HEPATITIS B VIRUS” (priority 2019, dated 2020)
